From patent US20240352419A1, “METHODS AND COMPOSITIONS FOR DIFFERENTIATION OF PLURIPOTENT STEM CELLS AND DERIVED HEMATOPOIETIC LINEAGE CELLS” (NUWACELL BIOTECHNOLOGIES CO., LTD., priority 2022, published 2024)

What was measured:
hiPSCs = assay: Directed differentiation of hiPSCs into HE, HP and iNK cells (flow cytometry KDR, CD34, CD56); type: cell-based, human; conditions: for output of CD34+ HP cells / output of CD56+ iNK cells: added during Stage 1-4 (XAV939 5 μM, SB431542 6 μM); for output of CD34+ HP cells: Day 10, vs control, FIG. 8A; for output of CD56+ iNK cells: Day 25, vs control, FIGS. 8B and 8C
Procedure: hiPSCs were prepared as described in CN108373998B. On Day −1, Embryoid body (EB) formation (Stage 1-1) was carried out by placing individualized hiPSCs in E8 medium containing 10 μM Blebbistatin in T25 flasks on a bellydancer and culture overnight. On Day 0, lateral mesoderm differentiation (Stage 1-2) was initiated by changing the medium to a Stage 1-2 differentiation medium comprising indicated basal medium (see Table 2.1) and supplemented with BMP4 (25 ng/ml), VEGF (50 ng/mL), bFGF (0.5 ng/ml) and CHIR99021 (4 μM) for 2 days. On Day 2, lateral mesoderm differentiation (Stage 1-3) continued for 1 day in a Stage 1-3 differentiation medium comprising indicated basal medium and supplemented with BMP4 (25 ng/mL), VEGF (50 ng/ml) and bFGF (0.5 ng/ml) and CHIR99021 (1 μM). On Day 3, HE specification (Stage 1-4) was initiated by adding a Stage 1-4 differentiation medium comprising indicated basal medium and supplemented with VEGF (50 ng/mL), bFGF (5 ng/mL), XAV939 (5 μM) for 1 day. On Day 4 (the end of Stage 1-4), EBs were dissociated into single cells and stained with KDR-APC antibody, the percentage of KDR^+ cells were detected by flow cytometry. HP differentiation (Stage 1-5) in was initiated by adding a Stage 1-5 differentiation medium comprising indicated basal medium and supplemented with SCF (10 ng/ml), Flt3L (10 ng/ml), VEGF (15 ng/ml) and bFGF (5 ng/mL) for 3 days. On Day 7 (the end of Stage 1-5), EBs were dissociated into single cells and stained with CD34− APC antibody, the percentage of CD34^+ HP cells was detected by flow cytometry. To initiate the differentiation from HP cells into iNK cells (Stage 2), EBs were collected and seeded in 6-well-plates coated with matrix proteins, DLL4 and VCAM1, in a Stage 2 differentiation medium comprising NKSFM and supplemented with SCF (20 ng/mL), Flt3L (10 ng/mL), IL-7 (25 ng/mL, Peprotech), IL-3 (5 ng/mL, Peprotech), IL-2 (700 IU/mL), IL-15 (10 ng/mL, Peprotech) for 14 days. On Day 21 (Stage 2-wk2), derived cells were counted and stained with CD56-PE antibody, the percentage of CD56^+ iNK cells were detected by flow cytometry. […] This improvement is attributed to the addition of NAM, PLT and Heparin sodium in NKSFM as compared with IF-4.
hiPSCs were prepared as described in CN108373998B. Basal medium used during Stage 2 of differentiation was also evaluated. On Day-1, Embryoid body (EB) formation (Stage 1-1) was carried out by placing individualized hiPSCs in E8 medium containing 10 μM Blebbistatin in T25 flasks on a shaker and cultured overnight. On Day 0, lateral mesoderm differentiation (Stage 1-2) was initiated by changing the medium to a Stage 1-2 differentiation medium comprising IF-4 basal medium and supplemented with BMP4 (25 ng/mL), VEGF (15 ng/mL), bFGF (0.5 ng/mL) and CHIR99021 (4 μM) for 2 days. On Day 2, lateral mesoderm differentiation (Stage 1-3) continued for 1 day in a Stage 1-3 differentiation medium comprising IF-4 basal medium and supplemented with BMP4 (25 ng/ml), VEGF (15 ng/mL) and bFGF (0.5 ng/mL) and CHIR99021 (4 μM). On Day 3, HE specification (Stage 1-4) was initiated by adding a Stage 1-4 differentiation medium comprising IF-4 basal medium and supplemented with VEGF (15 ng/mL), bFGF (5 ng/ml), SB431542 (6 μM) for 1 day. On Day 4 (the end of Stage 1-4), EBs were dissociated into single cells and stained with KDR-APC antibody, the percentage of KDR+ cells was detected by flow cytometry. HP differentiation (Stage 1-5) in was initiated by adding a Stage 1-5 differentiation medium comprising NKSFM and supplemented with SCF (50 ng/ml), Flt3L (10 ng/mL), VEGF (15 ng/mL) and bFGF (5 ng/mL) for 5 days. […]

PBNK cells = assay: Expansion of PBNK cells from PBMCs (expansion fold, CD56+CD3- percentage by flow cytometry); type: cell-based; conditions: effect of NAM concentration (0-5 mM) in basal medium
Procedure: The effect of the concentration of nicotinamide (NAM) in an exemplary basal medium on NK cell expansion was evaluated. The above basal medium comprised the following components: IMDM (Sigma):RPMI1640 (Gibco) (50%: 50%); about 1.3 ng/ml of Cupric sulfate, about 3 μM of Ferric sulfate, about 0.432 μg/mL of Zinc sulfate, about 1˜50 ng/ml of Na Selenite, about 110 μg/mL of Sodium pyruvate, 0.1˜20 μg/mL of Insulin, 1˜200 μg/mL of Transferrin, about 1% (v/v) of GlutaMAX-1, 0.1˜20 mg/mL of HSA, 1˜400 μM of MTG, about 80 μg/mL of Ascorbic acid and indicated concentration of NAM. Peripheral blood mononuclear cells (PBMCs) were isolated by density gradient centrifugation using Ficoll-Paque. On Day 0, PBMCs were plated at 1×10^6 cells/mL in a 48-well-plate in the basal medium with NAM (either 0, 1, 2, 2.5, 3, 3.5, 4, or 5 mM) and stimulated with the following reagents for 3 days: immobilized CD16 antibody (Biolegend, 302014) (135 ng/cm^2), IL-2 (700 IU/mL), IL-15 (10 ng/ml) and OK432 (0.01 KE/mL). On day 3, cells were re-suspended in the above basal medium supplemented with IL-2 (700 IU/mL) and IL-15 (10 ng/mL). Fresh medium was added every other day to maintain cell density below 2×10^6 cells/mL. Cells were collect on Day 14 and stained with CD56-PE and CD3-PerCP-Cy5.5 antibodies, the percentage of CD56^+CD3^− NK cells was analyzed by flow cytometry.
The effect of heparin sodium concentration in an exemplary NKSFM on NK cell expansion was also evaluated. NKSFM comprised the following components: IMDM (Sigma):DMEM/F12 (Gibco) (50%: 50%); about 20 μM of Ethanolamine, about 1˜50 ng/ml of Na Selenite, about 110 μg/mL of Sodium pyruvate, 0.1˜20 μg/mL of Insulin, 1˜200 μg/mL of Transferrin, about 1% (v/v) of GlutaMAX-1, 0.1˜20 mg/mL of Human serum albumin, 1˜400 μM of MTG, about 80 μg/mL of Ascorbic acid, about 1˜5 mM of NAM, 4% (v/v) of PLT, and indicated concentration of heparin sodium. PBMCs were isolated by density gradient centrifugation using Ficoll-Paque. On Day 0, PBMCs were plated at 1×10^6 cells/mL in a 48-well-plate in NKSFM with heparin sodium (0, 0.5, 1, 3, 10, 30, or 50 μg/mL) and stimulated with the following reagents for 3 days: immobilized CD16 antibody (Biolegend, 302014) (135 ng/cm^2), OK432 (0.01 KE/mL), NeoIL-2 (50 ng/ml), IL-12 (10 ng/mL), IL-18 (50 ng/mL). […] Cells were collect on Day 13 and stained with CD56-PE and CD3-PerCP-Cy5.5 antibodies, the percentage of CD56^+CD3^− NK cells was analyzed by flow cytometry. The specific lysis of K562 tumor cells by NK cells were assessed by CFSE/7-AAD cytotoxicity assay. […] After incubation for 4 hours, cells were stained with 7-AAD (Live/dead staining) and analyzed with flow cytometry.
The effect of PLT percentage (v/v) in an exemplary NKSFM on NK cell expansion was evaluated. […]

[1] = higher VEGF concentration during Stage 1-5

With `Cc1c[nH]c(-c2cnc(NCCNc3ccc(C#N)cn3)nc2-c2ccc(Cl)cc2Cl)n1` [CHIR99021] the “differentiation into CD34+ HP cells” value (hiPSCs; higher concentration of CHIR99021 (5-8 μM) during Stage 1-2, FIG. 9A) was “generally more advantageous”, the “differentiation into CD56+ iNK cells” value (hiPSCs; higher concentration of CHIR99021 (5-8 μM) during Stage 1-2, FIGS. 9B and 9C) was “somewhat disadvantageous” and the “differentiation into CD34+ HP cells” value (hiPSCs; lower concentration of CHIR99021 (0-4 μM) during Stage 1-3, FIG. 10A) was “somewhat disadvantageous”. The “differentiation into CD56+ iNK cells” value (hiPSCs; lower concentration of CHIR99021 (0-4 μM) during Stage 1-3, FIGS. 10B and 10C) was “generally more advantageous”.

With `NC(=O)c1cccnc1` [NAM, nicotinamide] the “NK cell expansion fold” value (PBNK cells; Day 14, FIG. 2A) was “significantly impacts” and the “percentage of CD56+CD3− NK cells” value (PBNK cells; Day 14, FIG. 2B) was “minimal effects”.

`NC(=O)c1ccc(-c2nc(-c3ccc4c(c3)OCO4)c(-c3ccccn3)[nH]2)cc1` [SB431542] was tested, and the “output of CD34+ HP cells” value (hiPSCs) was “improvement in increasing CD34^+ HP cell production at a certain degree” and the “output of CD56+ iNK cells” value (hiPSCs) was “does not show any improvement”.

In the case of `Oc1nc(-c2ccc(C(F)(F)F)cc2)nc2c1CSCC2` [XAV939], the “output of CD34+ HP cells” value (hiPSCs) is reported as “significantly promotes” and the “output of CD56+ iNK cells” value (hiPSCs) is reported as “significantly promotes”.

In the case of VEGF, the “percentage of KDR+ HE cells” value (hiPSCs; different VEGF concentration (15-100 ng/mL) in Stage 1, FIG. 11A) is reported as “minimal effects”, the “percentage of CD34+ HP cells” value (hiPSCs; different VEGF concentration (15-100 ng/mL) in Stage 1, FIG. 11B) is reported as “significantly impacts” and the “efficiency of further differentiation into iNK cells” value (hiPSCs; different VEGF concentration (15-100 ng/mL) in Stage 1, cell morphology, FIG. 11C) is reported as “significantly impacts”. For the same molecule, the “differentiation into HP cells and iNK cells” value (hiPSCs; higher VEGF concentration during Stage 1-2 and Stage 1-3) was “generally beneficial”, the “differentiation into HP cells” value (hiPSCs; [1]) was “generally beneficial” and the “differentiation into iNK cells” value (hiPSCs; [1]) was “but not into iNK cells”. For the same molecule, the “HP and iNK cell differentiation” value (hiPSCs; higher concentration of VEGF during Stage 1, especially Stage 1-2, 1-3 and 1-4, FIG. 12) was “significantly improves”.
